From patent publication US5627017A, “Low melting point ionizable epoxy scavengers for residual magenta couplers” (Eastman Kodak Company, priority 1995, dated 1997)

Legend:
[1] = Dispersion stability in constant temperature bath at 45 °C; assay type: physicochemical; conditions: 3.0 g epoxide with 1.0 g tri(2-ethylhexyl) phosphate in gelatin/Alkanol XC, E1 disintegrated with significant settling, SI-4 no evidence of settling or macroscopic coagulation
Method: 3.0 grams of E1 was combined with 1.0 gram of the water-immiscible organic solvent tri(2-ethylhexyl) phosphate. The mixture was heated until the oil phase was homogeneous. 26.0 grams of a 12% w/w solution of Type IV gelatin in water was combined with 43.8 grams of water and 4.0 grams of Alkanol XC to constitute the aqueous phase. The aqueous phase was maintained at 70° C. The oil phase was combined with the aqueous phase while stirring. The mixture was then passed twice through the microfluidizer at a pressure of 10,000 psi to obtain the dispersion.
Both dispersions were placed in a constant temperature bath set at 45° C.

[2] = logP (logarithm of the octanol/water partition coefficient); assay type: physicochemical
Description: Hydrophobic photographic additives are conveniently incorporated in a hydrophilic colloid layer of a photographic element by dissolving the hydrophobic additive in an organic solvent and then dispersing the organic solution in an aqueous solution to form a homogenized dispersion. […] The low hydrophobicity is essential to achieve efficient post-process migration of these compounds from the adjacent non-imaging layers into the magenta imaging layer. The combination of low hydrophobicity and high melting point makes it difficult to prepare stable dispersions of these compounds by homogenization in an aqueous solution even if relatively large amounts of water-immiscible organic solvent is used to dissolve the compounds. The exemplified compounds are accordingly dispersed in the examples of U.S. Ser. No. 08/255,512 by a solid particle dispersion process. In this method size reduction of the epoxy compound is achieved by attrition with media such as zirconia beads instead of by shearing action on a liquid solution. The solid particle dispersion process is relatively inefficient compared to homogenization and often requires several days of grinding in order to achieve the desired level of size reduction.

time at which dispersion disintegrated / showed settling or macroscopic coagulation [1]	logP [2]	SMILES
6 h	4.5	O=C(CCCCCCCCC1CO1)Oc1ccc(NS(=O)(=O)c2ccc(F)cc2F)cc1 (stereo not shown) [E1]
> 12 h	4.3	O=C(CCCCCCCCC1CO1)Oc1ccc(NS(=O)(=O)c2ccccc2)cc1 (stereo not shown) [SI-4]
